Experimental data: patent publication US20040180395A1, “Method for detecting calpain3 activity in a biological sample and peptides for implementing said method” (priority 2001, published 2004)
Primed or numbered codes have the meaning given here. The star is where a group is joined. Mca = COc1ccc2c(CC(=O)*)cc(=O)oc2c1; Dnp′ = not defined here

Legend:
Calpain 2 = target: T1, Calpain 2 (Rattus norvegicus, UniProt Q07009); assay: Assay of specificity of autolytic-site peptide cleavage (FRET fluorescence) by commercial calpain 2; type: biochemical; conditions: calpain 2, rat recombinant; 10 mM CaCl2; peptide 1.9 μM; 37° C.; FIG. 2
T1 construct: purchased Calbiochem; host or cells: E. coli
T1 sequence (Q07009 1-700): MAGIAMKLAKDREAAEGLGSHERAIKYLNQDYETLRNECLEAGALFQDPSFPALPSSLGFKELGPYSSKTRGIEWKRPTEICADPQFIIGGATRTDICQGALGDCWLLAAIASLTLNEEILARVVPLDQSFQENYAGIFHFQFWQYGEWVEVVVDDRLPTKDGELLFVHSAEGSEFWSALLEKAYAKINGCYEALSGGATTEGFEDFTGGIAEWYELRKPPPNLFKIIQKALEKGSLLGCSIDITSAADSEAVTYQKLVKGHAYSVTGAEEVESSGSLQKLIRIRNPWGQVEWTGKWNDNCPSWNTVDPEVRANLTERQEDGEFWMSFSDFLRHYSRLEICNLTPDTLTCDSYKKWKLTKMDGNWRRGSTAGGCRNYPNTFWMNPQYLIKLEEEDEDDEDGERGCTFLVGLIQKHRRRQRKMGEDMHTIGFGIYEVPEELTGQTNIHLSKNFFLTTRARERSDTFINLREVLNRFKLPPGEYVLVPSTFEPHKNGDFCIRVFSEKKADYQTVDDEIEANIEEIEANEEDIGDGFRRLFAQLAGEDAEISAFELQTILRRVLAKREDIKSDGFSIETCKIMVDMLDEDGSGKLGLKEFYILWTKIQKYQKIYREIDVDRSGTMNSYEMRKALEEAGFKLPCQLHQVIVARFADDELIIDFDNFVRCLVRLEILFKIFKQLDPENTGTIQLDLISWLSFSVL
T1 sequence (Q64537 87-270 partner limits assumed): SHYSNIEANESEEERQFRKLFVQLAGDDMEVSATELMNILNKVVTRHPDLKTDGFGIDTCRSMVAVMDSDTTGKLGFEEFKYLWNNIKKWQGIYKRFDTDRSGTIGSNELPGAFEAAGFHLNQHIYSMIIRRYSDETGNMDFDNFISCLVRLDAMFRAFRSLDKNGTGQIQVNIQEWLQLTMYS
Description: (§1) 1/ Fluorometer: SpectraMax Gemini XS Microplate fluoro-meter (molecular Devices).
Calpain 2: rat, recombinant, E. coli (Calbiochem)
(§2) Final volume of 200 μl; calcium (CaCl2) 10 mM final concentration; fluorescent peptides 1.9 μM final concentration.
(§3) The reaction is carried out at 37° C., either over one hour (with in this case measurement of fluorescence every 50 seconds) or over 6 hours (measurement every 2 minutes).
(§4) The medium is agitated between each measurement. The wavelengths used for detecting the fluorescence of the peptides are:
(§5) Excitation wavelengths of Mca: 325 nm.
(§6) Emission wavelengths of […]: 392 nm.
(§7) Resuspension buffer for commercial calpains: 100 mM NaCl, 5 mM EDTA, 50 Mm TrisHCl, 5 mM β-mercaptoethanol, 40% glycerol, pH=7.8. Storage at ambient temperature. Resuspension buffer for the fluorescent peptides: the peptides are resuspended at 1 mg/ml in 100% DMSO.
(§8) Reaction buffer: 100 mM NaCl, 50 mM HEPES, 10 mM DTT, 1 mM EDTA, 10% glycerol, 0.1% CHAPS, 100 ng/μl BSA, pH=7.4, filtration. Storage at ambient temperature.
(§9) Before verifying whether calpain 3 can cleave the peptides corresponding to its autolytic sites, a first assay consisted in verifying that these peptides (site 1, site 2, site 3) could not be cleaved by other proteases, in particular by ubiquitous calpains (see FIG. 2).

calpain 3 [1] = assay: Cleavage of autolytic-site peptides by extracts of normal (+/+) or calpain 3-deficient (−/−) mouse quadriceps; type: biochemical; conditions: quadriceps lysates, over 6 hours; FIG. 7
Description: as §2, §3, §5, §6, §8
Principle: The muscles are ground for the purpose of preparing protein extracts the properties of which may then be studied.
Material: Quadriceps of normal mice and of calpain 3-deficient mice.
The muscles are ground in liquid nitrogen. The ground material is resuspended in the lysis buffer (cf. composition in the cell lysis protocol above) in a proportion of 19 μl of lysis buffer per milligram of ground tissue.
The buffer is allowed to act for 10 minutes in ice. Centrifugation is carried out at 10 000 g for 10 minutes at 4° C.
(§10) The supernatant is recovered and stored at −20° C.
Activity assays were also carried out on lysates of muscles from mice deficient or not deficient in calpain 3. The assays were carried out using quadriceps lysates (FIG. 7).

Calpain 1 = target: T2, Calpain 1 (Homo sapiens, UniProt P07384); assay: Assay of specificity of autolytic-site peptide cleavage (FRET fluorescence) by commercial calpain 1; type: biochemical; conditions: calpain 1, human erythrocytes; 10 mM CaCl2; peptide 1.9 μM; 37° C.; FIG. 2
T2 construct: Calpain 1: human erythrocytes (Calbiochem); purchased Calbiochem; host or cells: human erythrocytes
T2 sequence (P07384 1-714): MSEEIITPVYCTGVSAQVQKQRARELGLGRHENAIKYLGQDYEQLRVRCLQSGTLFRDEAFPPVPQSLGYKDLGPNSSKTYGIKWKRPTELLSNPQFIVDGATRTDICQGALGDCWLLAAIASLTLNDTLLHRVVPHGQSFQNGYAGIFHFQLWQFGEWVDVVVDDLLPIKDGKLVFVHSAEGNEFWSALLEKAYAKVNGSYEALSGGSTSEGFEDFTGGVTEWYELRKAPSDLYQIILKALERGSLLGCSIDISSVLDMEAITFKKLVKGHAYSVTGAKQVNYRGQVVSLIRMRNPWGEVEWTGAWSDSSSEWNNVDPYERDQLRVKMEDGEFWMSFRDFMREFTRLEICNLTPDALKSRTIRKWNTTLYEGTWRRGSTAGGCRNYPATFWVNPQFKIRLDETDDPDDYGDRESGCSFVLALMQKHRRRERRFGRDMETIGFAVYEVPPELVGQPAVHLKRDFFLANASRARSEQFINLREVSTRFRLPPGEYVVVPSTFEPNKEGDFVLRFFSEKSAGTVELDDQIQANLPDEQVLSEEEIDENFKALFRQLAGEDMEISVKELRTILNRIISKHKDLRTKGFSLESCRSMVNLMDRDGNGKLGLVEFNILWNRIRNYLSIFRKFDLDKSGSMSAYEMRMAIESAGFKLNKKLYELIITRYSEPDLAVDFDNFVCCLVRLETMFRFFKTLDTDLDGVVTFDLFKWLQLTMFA
T2 sequence (P04632 1-268 partner): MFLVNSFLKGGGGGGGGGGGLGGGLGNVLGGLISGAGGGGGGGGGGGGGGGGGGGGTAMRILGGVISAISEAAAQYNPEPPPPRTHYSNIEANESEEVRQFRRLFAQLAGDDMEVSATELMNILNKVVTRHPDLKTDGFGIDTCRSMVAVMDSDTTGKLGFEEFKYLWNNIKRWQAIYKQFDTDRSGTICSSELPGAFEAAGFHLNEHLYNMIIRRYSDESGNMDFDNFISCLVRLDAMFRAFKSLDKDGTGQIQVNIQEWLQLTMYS
Description: as §1
Calpain 1: human erythrocytes (Calbiochem)
as §2, §3, §4, §5, §6, §7, §8, §9

calpain 3 [2] = assay: Cleavage of autolytic-site peptides by extracts of normal (+/+) or calpain 3-deficient (−/−) mouse myoblasts; type: biochemical; conditions: myoblast extracts; for cleavage activity on the peptide / difference in cleavage activity between +/+ and −/− cells: reaction over 1 h, FIG. 4; for cleavage activity, +/+ versus −/− cell extracts: reaction over 6 h, FIG. 6
Description: as §2, §3, §5, §6, §8
(§11) Principle: The animal cells, which may or may not be transfected, are lysed for the purpose of preparing protein extracts the properties of which may be studied.
(§12) The culture medium is removed from the wells and the wells are washed with PBS (phosphate buffered Dulbecco solution (without calcium, or magnesium, or sodium bicarbonate)—Gibco BRL).
(§13) The cells are harvested and centrifuged at 500 g for 10 min at 4° C.
(§14) The supernatant is removed and the cells are taken up in the lysis buffer (50 mM HEPES, 1 mM DTT, 0.1 mM EDTA, 0.1% CHAPS, pH=7.4) in a proportion of 700 μl of lysis buffer per well.
(§15) The buffer is allowed to act at 4° C. for 5 minutes. Centrifugation is carried out at 10 000 g/10 minutes/4° C.
as §10
The system is then assayed on extracts of cell cultures deficient or not deficient in calpain 3. To do this, mice deficient for the calpain 3 gene, for which myogenic cell cultures have been derived [Richard, 2000], are used. Extracts of cultures of calpain 3-deficient muscle cells (−/−cells) can therefore be compared with extracts of cultures of normal muscle cells (+/+cells). Initially, the assay was carried out on undifferentiated cells (myoblasts) (FIG. 4).

calpain 3 [3] = assay: Cleavage of autolytic-site peptides by extracts of C2C12 cells transfected or not transfected with the plasmid encoding calpain 3; type: biochemical, murine; conditions: FIG. 3; for difference in cleavage activity between calpain 3-transfected and untransfected cells: C2C12 extracts, efficiency of transfection less than 10%; for activity of C2C12 extracts on the peptide (fluorescence): transfected or untransfected C2C12 extracts
Description: as §2, §3, §5, §6, §8
Cell Lines Used: C2C12: murine myoblasts;
Medium used for C2C12: DMEM+10% FCS
The desired cells are trypsinized and then the wells are seeded in such a way that the cells are at 50-80% confluency the following day.
Allow the cells to grow at 37° C./7% CO2.
as §11, §12, §13, §14, §15, §10
It is known that calpain 3 has greater stability in muscle cells due to the presence of titin. For the purpose of proving that calpain 3 could cleave its own autolytic sites, it was therefore overexpressed in C2C12 cells by transfecting these cells with a plasmid encoding calpain 3. A control transfection with pECFP was carried out at the same time as the transfection with the plasmid encoding calpain 3. The efficiency of transfection on the C2C12s is less than 10%. The proteins were then extracted and their activity was assayed on the autolytic sites (FIG. 3).

calpain 3 [4] = assay: Cleavage of autolytic site 3 peptide by extracts of normal (+/+) or calpain 3-deficient (−/−) mouse myotubes; type: biochemical; conditions: myotube extracts; FIG. 5
Description: as §2, §3, §5, §6, §8, §11, §12, §13, §14, §15, §10
Specifically, calpain 3 is theoretically expressed more in myotubes than in myoblasts.

cleavage activity on the peptide (fluorescence over time vs peptide without enzyme) (Calpain 2)	cleavage activity on the peptide (fluorescence over time vs peptide without enzyme) (Calpain 1)	Substance	activity of cleavage, +/+ versus −/− tissue extracts (calpain 3 [1])	cleavage activity on the peptide (calpain 3 [2])	cleavage activity, +/+ versus −/− cell extracts (calpain 3 [2])	difference in cleavage activity between calpain 3-transfected and untransfected cells (calpain 3 [3])	activity of C2C12 extracts on the peptide (fluorescence) (calpain 3 [3])	difference in cleavage activity between +/+ and −/− cells (calpain 3 [2])	cleavage activity, −/− versus +/+ cell extracts (calpain 3 [4])
no cleavage activity	no cleavage activity	Mca-NMDNISLL-Dnp [site 2]	by the +/+ tissue extracts is greater than that of the −/−tissue extracts	No cleavage activity could be detected	greater in extracts of +/+cells	no difference can be detected	slight increase in fluorescence		
no cleavage activity	no cleavage activity	Mca-PVQYETR-Dnp (Mca-PVQYETR-{Dnp′}) [site 3, fluorescent FRET peptide of calpain 3 autolytic site 3, Mca donor and Dnp acceptor]	by the −/−tissue extracts is greater than that of the +/+tissue extracts	Cleavage activity is detected	greater in extracts of −/−cells than in extracts of +/+cells	greater in the transfected cells		no difference in activity is visible	in the extracts of −/−cells is greater than in the extracts of +/+cells
no cleavage activity	no cleavage activity	Mca-NMTYGTS-Dnp (Mca-NMTYGTS-{Dnp′}) [site 1, fluorescent FRET peptide of calpain 3 autolytic site 1, Mca donor and Dnp acceptor]	by the +/+ tissue extracts is greater than that of the −/−tissue extracts	low cleavage activity	greater in extracts of +/+cells	no difference can be detected	slight increase in fluorescence	very small	
